Tests used:
[1] = tested on: BMP response element (BRE from Id1 promoter) luciferase reporter; assay: BRE luciferase reporter gene assay in C2C12 cells; assay type: cell-based, mouse
Protocol: Luciferase activity was measured and error bars result from the mean of duplicate measurements. […] Expression of cGKIα/β was controlled by immunoblot using α-cGKI antibody. (C) As in (A and B) except that reporters were co-transfected with sh-cGKI, sh-cGKI mix and sh-control into C2C12 cells. BRE driven luciferase activity was measured and error bars represent deviation of the mean of duplicate measurements. […] Following cell extraction RNA was reverse transcribed into cDNA. The mRNA amount of Id1 was analyzed using Id1 specific primers including the control of applied cDNA by PCR using β-actin specific primers. The result is derived from a representative experiment. (F) As in (A and B), except that reporters were co-transfected with cGKIα and MYC-TFII-I into C2C12 cells. […] Lysates were pooled and immunoblotted for expression of cGKIα and TFII-I. (G) As in (E) except that mRNA amount of cGKI was analyzed using cGKI specific primers. The result is derived from an exemplary experiment. Results were quantified using ImageJ. cGKI mRNA expression was normalized relative to β-actin. […] Fold changes in BRE reporter activities were normalized to the non-treated empty vector control (mean±SD). […] The PDGF- or serum-induced proliferation was measured.
C2C12 cells were transfected with pBRE4-luc and pRL-TK and indicated constructs. […] Luciferase activity was measured according to manufacturer's instructions using the Dual-Luciferase® Reporter Assay System (Promega) and a FB12 or Mithras LB 940 luminometer (Berthold). Expression control was examined by immunoblotting.

VASP = assay: Endogenous VASP phosphorylation in C2C12 cells (immunoblot); assay type: cell-based, mouse; details: 1 μmol/l 8-Br-cGMP
Protocol: Endogenous VASP phosphorylation in C2C12 cells was monitored in response to 1 μmol/l and 100 μmol/l 8-Br-cGMP stimulation. Lysates were analyzed using immunoblot α-pVASP and α-β-actin.

cGKI = assay: Immunofluorescence microscopy of cGKI localization in C2C12 cells; assay type: cell-based, mouse; details: stimulation for 30 min
Protocol: (C) Immunofluorescence staining of cGKI in C2C12 cells after stimulation with BMP-2 or 8-Br-cGMP. DNA was stained using Hoechst dye.
Analysis was done with 63-fold magnification at a Leica DMR (Leica) confocal microscope. To examine the protein localization C2C12 cells or transfected 293T cells were starved for 3 hrs and either stimulated with 10 or 20 nmol/l BMP-2 and/or 1 mmol/18-Br-cGMP for 30 min or for 5 to 60 min or left untreated. Indirect immunofluorescence was performed as described in (Bengtsson and Wilson, 2006). Cells were analyzed using fluorescence microscopy (63-fold magnification, Axiovert 200M, Zeiss).

Id1 promoter = assay: Chromatin immunoprecipitation (ChIP) at the Id1 promoter in C2C12 cells; assay type: cell-based, mouse; details: co-stimulation with or stimulation with 8-Br-cGMP alone, 1 μmol/l, 4 hrs
Protocol: Chromatin immunoprecipitation (ChIP) was performed using (A) α-cGKI or α-Smad1 antibody or (B) α-Smad1 followed by α-cGKI antibody and vice versa or (C) α-Smad1 followed by α-TFII-I antibody and vice versa. Subsequent PCR identified a co-precipitated Id1 promoter sequence using specific primers. […] To exclude unspecific outcome control samples were run (for ChIP: no antibody, IgG, α-GFP antibody; for two-step ChIP: α-respective antibody followed by IgG; for unspecific amplification via PCR: no template). […] C2C12 cells were stimulated with BMP-2 for 4 h or left unstimulated. Endogenous chromatin immunoprecipitations (ChIP) of a specific Id1 promoter fragment was performed using α-Smad1 and α-cGKI antibodies (left). Id1 promoter was assayed for cGKI/TFII-I complex formation by one-step and two-step ChIP with the indicated antibodies. (D) Endogenous complexes with cGKI from C2C12 cells were analyzed with α-TFII-I, α-Smad1 and α-Smad4 antibodies and a lysate aliquot was monitored for protein expression. (E) Smad1/TFII-I association was analyzed in 293T cells expressing both proteins. IP was performed using a Smad1 directed antibody and the pellets were examined for co-IP of TFII-I. Lysate control was done by immunoblotting α-Smad1 and α-TFII-I.
Briefly, C2C12 cells were grown to a confluence of 80-90% (10 cm dish). […] PCR products were separated on 8% PA gels and analyzed under UV light.

[2] = molecular target: T1, GST-BRII-tail (methionine 501 to leucine 1038) (UniProt Q13873)
T1 sequence: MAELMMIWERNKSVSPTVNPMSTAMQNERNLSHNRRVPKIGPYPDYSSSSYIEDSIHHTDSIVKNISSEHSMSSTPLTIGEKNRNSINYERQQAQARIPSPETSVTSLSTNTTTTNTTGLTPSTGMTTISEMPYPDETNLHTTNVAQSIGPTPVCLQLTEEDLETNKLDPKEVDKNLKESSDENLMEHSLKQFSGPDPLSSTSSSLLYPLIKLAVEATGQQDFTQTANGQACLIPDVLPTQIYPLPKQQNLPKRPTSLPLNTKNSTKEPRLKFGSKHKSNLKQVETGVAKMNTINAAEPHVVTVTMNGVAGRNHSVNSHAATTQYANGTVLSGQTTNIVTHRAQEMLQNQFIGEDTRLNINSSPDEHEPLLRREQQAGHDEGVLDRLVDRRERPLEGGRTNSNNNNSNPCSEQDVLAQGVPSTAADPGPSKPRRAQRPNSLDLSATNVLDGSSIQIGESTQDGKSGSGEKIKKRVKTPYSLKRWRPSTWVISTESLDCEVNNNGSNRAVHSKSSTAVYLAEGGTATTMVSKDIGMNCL

Smad1/5/8 = assay: Smad phosphorylation assay in C2C12 cells; assay type: cell-based, mouse; details: without ligand, sh-cGKI versus sh-control
Text: (§1) Whole cellular extracts were subjected to immunoblot using α-pSmad1/5/8 antibody. α-cGKIβ and α-β-actin immunoblotting was used as expression and loading control. To monitor the activity of cGKIβ the membrane was re-probed with α-pVASP antibody. Results were quantified using ImageJ and Smad1 C-terminal phosphorylation was normalized relative to β-actin. […] (C) Efficiency of cGKI knock down using a specific short hairpin-RNA (sh-cGKI) compared to a control (sh-control) was validated in C2C12 cells via immunoblot using α-cGKI antibody. Applied protein amount was controlled by α-β-tubulin antibody. (D) C2C12 cells were transfected with sh-cGKI and sh-control and subjected as in (A) to Smad phosphorylation assay. Smad1/5/8 phosphorylation and protein loading was monitored with α-pSmad1/5/8 and α-β-actin antibodies. Results were quantified using […]) and Smad1/5 C-terminal phosphorylation was normalized relative to β-actin.
(§2) Cell lysis and immunoblotting was performed as described in (Hartung et al., 2006).

Smad1 = assay: Smad phosphorylation assay in transfected 293T cells; assay type: cell-based; details: 293T cells co-expressing Smad1, non-stimulated and BMP-2/8-Br-cGMP co-stimulated
Text: as §1, §2

HA-BRII-LF Q657ins16 = assay: BRE reporter assay with BRII PAH mutant in C2C12 cells; assay type: cell-based, mouse; details: C2C12 cells overexpressing cGKI and PAH mutant versus mutant alone
Protocol: (§3) Luciferase activity was measured and error bars result from the mean of duplicate measurements. […] Expression of cGKIα/β was controlled by immunoblot using α-cGKI antibody. (C) As in (A and B) except that reporters were co-transfected with sh-cGKI, sh-cGKI mix and sh-control into C2C12 cells. BRE driven luciferase activity was measured and error bars represent deviation of the mean of duplicate measurements. […] Luciferase activities are represented as mean of each value and standard deviations result from duplicate measurements. […] Following cell extraction RNA was reverse transcribed into cDNA. The mRNA amount of Id1 was analyzed using Id1 specific primers including the control of applied cDNA by PCR using β-actin specific primers. The result is derived from a representative experiment. (F) As in (A and B), except that reporters were co-transfected with cGKIα and MYC-TFII-I into C2C12 cells. BRE driven luciferase activity was measured, standard deviations result from duplicate measurements. […] Lysates were pooled and immunoblotted for expression of cGKIα and TFII-I. (G) As in (E) except that mRNA amount of cGKI was analyzed using cGKI specific primers. The result is derived from an exemplary experiment. Results were quantified using ImageJ. cGKI mRNA expression was normalized relative to β-actin. […] The PDGF- or serum-induced proliferation was measured. […]

[3] = tested on: human aortic smooth muscle cells; assay: PDGF- or serum-induced proliferation of human aortic smooth muscle cells expressing BMPRII mutant; assay type: cell-based; details: cells transfected with MYC-BMPRII-Q567ins16 with cGKI coexpression, 24 h
Protocol: as §3

Which results are given for `Nc1nc2c(nc(Br)n2[C@@H]2O[C@@H]3COP(=O)(O)O[C@H]3[C@H]2O)c(=O)[nH]1` [8-Br-cGMP]?
BRE reporter gene activity upon stimulation ([1]; C2C12 cells, endogenous cGKI, 1 nmol/l BMP-2 and/or 1 μmol/l or 100 μmol/l 8-Br-cGMP, 24 hrs): did not affect; cGKI-mediated VASP phosphorylation (VASP): weak cGKI-mediated VASP phosphorylation; nuclear translocation of endogenous cGKI (cGKI): redistribution of cGKI to the nucleus; effect on binding of Smad1 and cGKI to the Id1 promoter (Id1 promoter): did not affect

recombinant cGKIα (Promega) was tested. Which “in vitro phosphorylation (γ-32P-ATP, autoradiography), cGKIα activated with 8-Br-cGMP” value [2] did it give?
Its value is “BRII-tail was phoshorylated by activated cGKlα”.

How did the “BRE reporter gene response upon ligand stimulation compared to control cells” value ([1]; C2C12 cells transfected with sh-cGKI versus sh-control, BMP-2 stimulated) turn out when “sh-cGKI: shRNA construct specific for mouse cGKI, SEQ ID NO 3 (CACCGGGACGATGTTTCTAACAAACGAATTTGTTAGAAACATCGTCC; listed as Homo sapiens)” was run?
Its value is “less than 50%”.

What about the “endogenous Smad1/5/8 phosphorylation” value (Smad1/5/8) of the same molecule?
Its value is “reduced”.

B1: cGKIβ: β isoform of cGMP-dependent protein kinase I, SEQ ID NO 2 (protein, listed as Homo sapiens)
chain: MGTLRDLQYALQEKIEELRQRDALIDELELELDQKDELIQKLQNELDKYRSVIRPATQQAQKQSASTLQGEPRTKRQAISAEPTAFDIQDLSHVTLPFYPKSPQSKDLIKEAILDNDFMKNLELSQIQEIVDCMYPVEYGKDSCIIKEGDVGSLVYVMEDGKVEVTKEGVKLCTMGPGKVFGELAILYNCTRTATVKTLVNVKLWAIDRQCFQTIMMRTGLIKHTEYMEFLKSVPTFQSLPEEILSKLADVLEETHYENGEYIIRQGARGDTFFIISKGTVNVTREDSPSEDPVFLRTLGKGDWFGEKALQGEDVRTANVIAAEAVTCLVIDRDSFKHLIGGLDDVSNKAYEDAEAKAKYEAEAAFFANLKLSDFNIIDTLGVGGFGRVELVQLKSEESKTFAMKILKKRHIVDTRQQEHIRSEKQIMQGAHSDFIVRLYRTFKDSKYLYMLMEACLGGELWTILRDRGSFEDSTTRFYTACVVEAFAYLHSKGIIYRDLKPENLILDHRGYAKLVDFGFAKKIGFGKKTWTFCGTPEYVAPEIILNKGHDISADYWSLGILMYELLTGSPPFSGPDPMKTYNIILRGIDMIEFPKKIAKNAANLIKKLCRDNPSERLGNLKNGVKDIQKHKWFEGFNWEGLRKGTLTPPIIPSVASPTDTSNFDSFPEDNDEPPPDDNSGWDIDF
For B1, which “C-terminal Smad1 phosphorylation” value (Smad1) is on record?
Its value is “resulted in phosphorylation of Smad1”.

B2: cGKI: cGMP-dependent protein kinase I (α or β isoform, SEQ ID NO 1 or 2), overexpressed in cells (protein, UniProt Q13976 2-671, looked up)
cGMP-dependent protein kinase …: SELEEDFAKILMLKEERIKELEKRLSEKEEEIQELKRKLHKCQSVLPVPSTHIGPRTTRAQGISAEPQTYRSFHDLRQAFRKFTKSERSKDLIKEAILDNDFMKNLELSQIQEIVDCMYPVEYGKDSCIIKEGDVGSLVYVMEDGKVEVTKEGVKLCTMGPGKVFGELAILYNCTRTATVKTLVNVKLWAIDRQCFQTIMMRTGLIKHTEYMEFLKSVPTFQSLPEEILSKLADVLEETHYENGEYIIRQGARGDTFFIISKGTVNVTREDSPSEDPVFLRTLGKGDWFGEKALQGEDVRTANVIAAEAVTCLVIDRDSFKHLIGGLDDVSNKAYEDAEAKAKYEAEAAFFANLKLSDFNIIDTLGVGGFGRVELVQLKSEESKTFAMKILKKRHIVDTRQQEHIRSEKQIMQGAHSDFIVRLYRTFKDSKYLYMLMEACLGGELWTILRDRGSFEDSTTRFYTACVVEAFAYLHSKGIIYRDLKPENLILDHRGYAKLVDFGFAKKIGFGKKTWTFCGTPEYVAPEIILNKGHDISADYWSLGILMYELLTGSPPFSGPDPMKTYNIILRGIDMIEFPKKIAKNAANLIKKLCRDNPSERLGNLKNGVKDIQKHKWFEGFNWEGLRKGTLTPPIIPSVASPTDTSNFDSFPEDNDEPPPDDNSGWDIDF
Which results are given for B2?
BRE reporter activity upon overexpression ([1]; transfected C2C12 cells, in the absence of BMP-2): increased; BRE activity in cells expressing the PAH mutant BRII (HA-BRII-LF Q657ins16): rescues defective BMP signaling; PDGF- or serum-induced proliferation [3]: downregulated
